These results are taken from US20230302021A1, “COMPOSITIONS AND METHODS FOR TREATING CASTRATION-RESISTANT PROSTATE CANCER” (Purdue Research Foundation, priority 2022, published 2023).

The conditions of data set [1]: rats, dogs, and humans; cited from earlier work.
In the next data set the target is T1, SOAT1 (Homo sapiens, UniProt P35610).
T1 sequence (P35610 1-550): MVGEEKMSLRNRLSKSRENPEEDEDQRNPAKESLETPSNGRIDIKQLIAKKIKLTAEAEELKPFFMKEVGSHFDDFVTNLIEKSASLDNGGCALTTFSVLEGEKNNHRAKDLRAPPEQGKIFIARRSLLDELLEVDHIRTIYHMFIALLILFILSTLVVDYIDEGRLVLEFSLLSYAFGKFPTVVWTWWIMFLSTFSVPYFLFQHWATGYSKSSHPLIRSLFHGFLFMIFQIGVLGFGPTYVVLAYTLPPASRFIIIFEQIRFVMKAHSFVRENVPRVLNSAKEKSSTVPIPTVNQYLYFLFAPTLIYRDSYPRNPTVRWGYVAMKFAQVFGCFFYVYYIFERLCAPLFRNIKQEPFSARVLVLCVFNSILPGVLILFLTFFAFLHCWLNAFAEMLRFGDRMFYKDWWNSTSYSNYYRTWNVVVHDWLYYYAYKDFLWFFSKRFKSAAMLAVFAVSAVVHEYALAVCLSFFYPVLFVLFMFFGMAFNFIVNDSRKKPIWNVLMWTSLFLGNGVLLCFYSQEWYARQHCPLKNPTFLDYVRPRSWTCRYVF
The note with it: cited from earlier work.

A further data set concerns AR signaling. Put plainly: qPCR of genes related to AR signaling in 22RV1 cells. In kind it is cell-based. Particulars: 20 μM ENZ in presence or absence of 4 μM avasimibe, 24 h.
A further data set has as its system 22RV1 cells. Kind of data set: Cell proliferation / viability (MTT) assay. Format: cell-based. The note with it: for proliferation of 22RV1 cells: ENZ-resistant 22RV1 cells, FIG. 1. The protocol:
Cell viability assay: An MTT assay was performed to evaluate the effect of drugs on cell viability. Ten thousand cells per well were plated in a 96-well plate and treated with drugs the following day. The MTT solution (0.5 mg/ml) was then applied to the cells for 1 h at 37° C. with 5% CO2. Precipitated formazan was dissolved in DMSO and quantified at 570 nm using a microplate reader (Beckman-Coulter). Combination index: The data obtained from the MTT assay were used to calculate cell viability and also used to calculate combination index (CI). The Chou-Talalay method was applied to determine the CI using CompuSyn software (Biosoft).

The next data set has as its system 22RV1-derived xenograft. Put plainly: 22RV1-derived mouse xenograft model. Format: in vivo. Particulars: castrated nude mice, daily for 3 weeks; ENZ 25 mg/kg/day oral gavage, AVA 20 mg/kg/day intraperitoneal. As for the experimental part: All procedures were approved by the Purdue Animal Care and Use Committee. Five-week-old male nude mice (Jackson Laboratory) were purchased for the experiment. […] ENZ stock prepared in DMSO was diluted in corn oil for oral gavage and AVA solution was prepared. Once the tumors reached approximately 50-100 mm^3, the mice were randomly divided into four groups for daily drug administration for 3 weeks: (i) vehicle oral gavage (corn oil)+vehicle intraperitoneal injection (2% tween-80 (v/v) and 3.2 mg/mL 2-hydroxypropyl-β-cyclodextrin in PBS); (ii) ENZ alone (25 mg/kg body weight/day) by oral gavage; (iii) AVA alone (20 mg/kg body weight/day) by intraperitoneal injection; (iv) ENZ (25 mg/kg/day)+AVA (20 mg/kg/day). Tumors were monitored every two days with a caliper and tumor volumes were calculated with the formula V=0.5×L×W^2 (where V is volume, L is length, W is the width). At the end of the study, mice were euthanized and tumor tissues were excised and weighted.

By IC50 is commonly meant the concentration at which inhibition is half-maximal.

Take `CC(C)c1cc(C(C)C)c(CC(=O)NS(=O)(=O)Oc2c(C(C)C)cccc2C(C)C)c(C(C)C)c1` [AVA, avasimibe]: the safety when administered result in data set [1] is “considered safe”. The IC50 on SOAT1 was 24 µM. Moreover, in the data set with AR signaling, the “AR expression (mRNA)” value was “did not change”, the “AR-V7 expression (mRNA)” value is reported as “did not change”, the “Nkx3.1 expression (mRNA)” value is reported as “downregulated” and the “Psa expression (mRNA)” value was “downregulated”. Further, the “proliferation of 22RV1 cells” value in the data set with 22RV1 cells is listed as “slightly suppressed cell proliferation”. Further, the “tumor growth (appearance, average tumor volume, tumor weight)” value in the data set with 22RV1-derived xenograft is “did not sufficiently delay the tumor growth”.

For `CNC(=O)c1ccc(N2C(=S)N(c3ccc(C#N)c(C(F)(F)F)c3)C(=O)C2(C)C)cc1F` [ENZ, enzalutamide], the “proliferation of 22RV1 cells” value with 22RV1 cells is on record as “resistant”. Besides, the “proliferation of shRNA-transfected 22RV1 cells” value in the data set on 22RV1 cells (shCTRL or shSOAT1 with DMSO or ENZ, FIG. 5B) is “little effect on the proliferation”. Also, in the data set on 22RV1-derived xenograft, the “tumor growth (appearance, average tumor volume, tumor weight)” value is “did not sufficiently delay the tumor growth”.

For the compound `CCOC(=O)OC(=O)OCC` [pyrocarbonate, diethyl pyrocarbonate], the “IC50 value for SOAT1 relative to the corresponding IC50 value for SOAT2” value on SOAT1 (SOAT1 vs SOAT2 selectivity) was “at least twice or higher”.
